Experimental data as given in US11352368B2, “Salt of fused ring pyrimidine compound, crystal form thereof and preparation method therefor and use thereof” (GUANGZHOU MAXINOVEL PHARMACEUTICALS CO., LTD., priority 2018, dated 2022).
≈ marks a conversion by molar mass, not a printed value. Where a name gives a salt, the structure may show the parent alone. Read-outs that look alike come from different tables or passages of the source. Each block holds one compound with its values, some of them ahead of it.

Columns and labels:
[1] = Solubility test of crystal form A and crystal form B in a medium (Example 12); format: physicochemical; conditions: for solubility: thermodynamic from solid, read-out: Solubility (calculated by free base of the fused ring pyrimidine compound); for Solubility (calculated by free base of the fused ring pyrimidine compound): in mg/mL (unit assumed); for solubility in pure water compared to free base: versus free base of the fused ring pyrimidine compound
Description: Example 12 Solubility Test of the Crystal Form A of the Fumarate of Fused Ring Pyrimidine Compound as Shown in Formula 2 and the Crystal Form B of the Adipate of Fused Ring Pyrimidine Compound as Shown in Formula 3 in a Medium

[2] = Solubility test of the salts in pure water (Example 6); format: physicochemical; conditions: for saturated solubility: room temperature, balancing about 20 hours, HPLC; for solubility in pure water compared with the free base: versus free base of the fused ring pyrimidine compound
Method: 2.0 mg of sample was precisely weighed into a liquid phase vial, 1.0 mL of purified water was added, the vial was subjected to ultrasonic treatment for about 30 seconds to disperse the samples evenly, then the vial was placed on a Labquaker rotator, and slowly rotated at room temperature for balancing. After balancing for about 20 hours, each vial was removed, and the solution was filtered with 0.45 μm nylon filter membrane. The filtrate was diluted by DMSO or not diluted and then detected by HPLC. At the same time, two parts of fused ring pyrimidine compounds were weighed and dissolved in DMSO to make standard solutions with concentration of 250 μg/mL and 500 μg/mL, respectively. The standard solutions were subjected to the HPLC detection. The sample concentration vs the peak area of HPLC principal component was used for make a standard curve, and the solubility of each sample in pure water was calculated by a external standard method.

[3] = Dynamic vapor sorption analysis (DVS); format: physicochemical; conditions: for XRPD of samples after DVS test: XRPD diffraction peaks before and after DVS test; for DVS weight gain from 0% RH to 95% RH: 25° C., 0% to 95% relative humidity, weight percentage
Method: (§1) 10 mg of the crystal form A of the fumarate of fused ring pyrimidine compound as shown in formula 2 was weighed, and dried for 60 min under the condition of a temperature of 25° C. and a humidity of 0% RH, and then the humidity absorption characteristic of the sample was tested when the humidity changed from 0% RH to 95% RH, and the dehumidification characteristic of the sample was tested when the humidity changed from 95% RH to 0% RH. Each step length for the humidity changes was 5% RH, the balance standard was that the weight change rate was less than 0.01%/min within 5 min, and the longest balance time was 2 hours.
as §1, with “form B” for “form A”, “the adipate” for “the fumarate”, “formula 3” for “formula 2”

[4] = Stability test (total impurities, 20 days); format: physicochemical; conditions: for chemical stability in the condition of high temperature and high humidity / stability under light conditions versus the compound of formula 1: 20 days
Method: The crystal form A of the fumarate of fused ring pyrimidine compound as shown in formula 2, the crystal form B of the adipate of fused ring pyrimidine compound as shown in formula 3 and the fused ring pyrimidine compound as shown in formula 1 were subjected to tests at a high temperature of 60° C., 25° C./60% RH, 40° C./75% RH and highlight irradiation (4500 lx±500 lx), the test time was 20 days, the sample bottles were placed under different test conditions, and samples were taken at 0 and 20 days to detect the total amount of impurities, and the test results were shown in Table 8 below.

[5] = Pharmacokinetic experiment, single intragastric dose in rats; format: in vivo, SD rats; conditions: single dose 10 mg/kg, 0.5% MC and 0.5% Tween80 in water
Method: 1) Preparation of animals 9 healthy male SD rats, each with a body weight of 220-230 g, were taken, fed with standard formulated granulated feed for rats at fixed times every day, and fasted for 12 hours before the experiment, and feeding was resumed after 4 hours of administration. Rats were free to drink water before, after and during the experiment. 9 rats were randomly divided into 3 groups.
2) Formulation of drugs: The fused ring pyrimidine compound as shown in formula 1, the crystal form A of the fumarate of fused ring pyrimidine compound as shown in formula 2 and the crystal form B of the adipate of fused ring pyrimidine compound as shown in formula 3 were accurately weighed, and were formulated into a 1 mg/mL solution in water (Wahaha/111830) with 0.5% MC (Fluka/BCBK3534K) and 0.5% Tween80 (TCl/V4FSC), respectively.
3) Intragastric administration with single dose (10 mg/kg): in the first group, rats were intragastrically administered with a solution of the fused ring pyrimidine compound as shown in formula 1, in the second group, rats were intragastrically administered with a solution of the crystal form A of the fumarate of fused ring pyrimidine compound as shown in formula 2, and in the third group, rats were intragastrically administered with a solution of the crystal form B of the adipate of fused ring pyrimidine compound as shown in formula 3.
4) Collection of blood samples: About 150 μL of blood was taken from the fundus venous plexus before administration and 0.083, 0.25, 0.5, 1, 2, 4, 8 and 24 hours after administration from each rat in the three groups, and anticoagulated with K2EDTA, plasma was separated by centrifugation and the supernatant was collected for LC-MS analysis.

[6] = listed as The fumarate of fused ring pyrimidine compound as shown in formula 2
[7] = listed as The phosphate of fused ring pyrimidine compound as shown in formula 4
[8] = listed as The tartrate of fused ring pyrimidine compound as shown in formula 5
[9] = medium intestinal fluid in simulated fed state (FeSSIF)
[10] = medium pH 4 (50 mM phosphate buffer)
[11] = medium pH 6 (50 mM phosphate buffer)

Compound: COc1cc(F)ccc1-c1c(C)sc2cnc(Nc3cnn(C4CCNCC4)c3)nc12
- solubility ([1]; 50 mM phosphate buffer, pH 6, aqueous buffer, medium pH 6 (50 mM phosphate buffer)): 36 µg/mL (≈ 82.1 µM)
- solubility ([1]; FeSSIF, medium intestinal fluid in simulated fed state (FeSSIF)): 1910 µg/mL (≈ 4350 µM)

Compound: COc1cc(F)ccc1-c1c(C)sc2cnc(Nc3cnn(C4CCNCC4)c3)nc12 [Example 2]
- saturated solubility [2]: 520 µg/mL
- solubility in pure water compared with the free base [2]: significantly improved

Compound: COc1cc(F)ccc1-c1c(C)sc2cnc(Nc3cnn(C4CCNCC4)c3)nc12 [Example 3]
- saturated solubility [2]: 675 µg/mL
- solubility in pure water compared with the free base [2]: significantly improved
- DVS: Moisture-absorption weight gain at 85% RH [3, 7]: 85% RH: 6.95%
- DVS: Moisture-absorption weight gain at 95% RH [3, 7]: 95% RH: 12.15%
- XRPD of samples after DVS test [3, 7]: consistent
- DVS: Weight loss in drying stage [3, 7]: drying stage: 0.752%

Compound: COc1cc(F)ccc1-c1c(C)sc2cnc(Nc3cnn(C4CCNCC4)c3)nc12 [The crystal form A of the fumarate of fused ring pyrimidine ]
- solubility in intestinal fluid (FeSSIF) in simulated fed state, in words ([1]; FeSSIF): high
- pH value of sample solution for solubility ([1]; medium Purified water): 7.27
- Solubility (calculated by free base of the fused ring pyrimidine compound) ([1]; medium Purified water): 0.126
- pH value of sample solution for solubility [1, 9]: 5.19
- pH value of sample solution for solubility [1, 10]: 4.33
- Solubility (calculated by free base of the fused ring pyrimidine compound) [1, 10]: 0.159
- pH value of sample solution for solubility [1, 11]: 5.96
- solubility in pure water compared to free base [1]: significantly improved
- DVS weight gain from 0% RH to 95% RH [3]: 0.2518%
- Impurity content ([4]; Day 0): 0.25%
- Impurity content ([4]; Day 20, 25° C/60% RH): 0.25%
- Impurity content ([4]; Day 20, 40° C/75% RH): 0.28%
- Impurity content ([4]; Day 20, 60° C): 0.25%
- Impurity content ([4]; Day 20, Light (4500 lx±500 lx)): 0.46%
- chemical stability in the condition of high temperature and high humidity [4]: good chemical stability
- stability under light conditions versus the compound of formula 1 [4]: significantly higher
- Blood drug concentration (AUC) [5]: 999 ng·h/mL

Results, then the compound that gave them:

- saturated solubility [2]: 170 µg/mL
- solubility in pure water compared with the free base [2]: significantly improved
- DVS: Moisture-absorption weight gain at 85% RH [3, 6]: 85% RH: 0.324%
- DVS: Moisture-absorption weight gain at 95% RH [3, 6]: 95% RH: 0.404%
- XRPD of samples after DVS test [3, 6]: consistent
- DVS: Weight loss in drying stage [3, 6]: drying stage: 0.117%
Compound: COc1cc(F)ccc1-c1c(C)sc2cnc(Nc3cnn(C4CCNCC4)c3)nc12 [Example 1]

- saturated solubility [2]: 146 µg/mL
- solubility in pure water compared with the free base [2]: significantly improved
- DVS: Moisture-absorption weight gain at 85% RH [3, 8]: 85% RH: 8.390%
- DVS: Moisture-absorption weight gain at 95% RH [3, 8]: 95% RH: 8.659%
- DVS: Weight loss in drying stage [3, 8]: drying stage: 5.88%
Compound: COc1cc(F)ccc1-c1c(C)sc2cnc(Nc3cnn(C4CCNCC4)c3)nc12 [Example 4]

- pH value of sample solution for solubility ([1]; medium Purified water): 7.09
- Solubility (calculated by free base of the fused ring pyrimidine compound) ([1]; medium Purified water): 0.463
- pH value of sample solution for solubility [1, 9]: 5.2
- Solubility (calculated by free base of the fused ring pyrimidine compound) [1, 9]: 1.46
- pH value of sample solution for solubility [1, 10]: 4.85
- Solubility (calculated by free base of the fused ring pyrimidine compound) [1, 10]: 0.104
- pH value of sample solution for solubility [1, 11]: 6.01
- Solubility (calculated by free base of the fused ring pyrimidine compound) [1, 11]: 0.035
- solubility in pure water compared to free base [1]: significantly improved
- DVS weight gain from 0% RH to 95% RH [3]: 2.751%
- Impurity content ([4]; Day 0): 0.24%
- Impurity content ([4]; Day 20, 25° C/60% RH): 0.22%
- Impurity content ([4]; Day 20, 40° C/75% RH): 0.22%
- Impurity content ([4]; Day 20, 60° C): 0.23%
- Impurity content ([4]; Day 20, Light (4500 lx±500 lx)): 0.42%
- chemical stability in the condition of high temperature and high humidity [4]: good chemical stability
- stability under light conditions versus the compound of formula 1 [4]: significantly higher
- Blood drug concentration (AUC) [5]: 1038 ng·h/mL
Compound: COc1cc(F)ccc1-c1c(C)sc2cnc(Nc3cnn(C4CCNCC4)c3)nc12 [The crystal form B of the adipate of fused ring pyrimidine c]
